Assay results as given in PubChem BioAssay AID248 (DTP/NCI, 2004).
Inconclusive results and toxic doses are left out. Cut-off read from the data, not from the text of the source: active = T/C of 150% or more; inactive = T/C below 125%.

Test system: L1210 leukemia ip in BDF1 mice, survival T/C
Experiment: NCI In Vivo Anticancer Drug Screen. Data for tumor model L1210 Leukemia (intraperitoneal) in B6D2F1 (BDF1) mice
Settings: endpoint: mean survival time, higher = longer survival
In short: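 Ratio derived from survival: compound-dosed mice over vehicle-dosed mice, all bearing a transplantable tumor.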

[1] = dose: 100.0 mg/kg/injection, schedule: Q01DX001 (ip), vehicle: Klucel (hydroxypropylcellulose) (HPC)
[2] = dose: 200.0 mg/kg/injection, schedule: Q01DX001 (ip), vehicle: Klucel (hydroxypropylcellulose) (HPC)
[3] = dose: 400.0 mg/kg/injection, schedule: Q01DX001 (ip), vehicle: Klucel (hydroxypropylcellulose) (HPC)
[4] = dose: 100.0 mg/kg/injection, schedule: Q04DX002 (ip), vehicle: Klucel (hydroxypropylcellulose) (HPC)
[5] = dose: 100.0 mg/kg/injection, schedule: Q04DX003 (ip), vehicle: saline with Tween-80
[6] = dose: 200.0 mg/kg/injection, schedule: Q04DX003 (ip), vehicle: saline with Tween-80
[7] = dose: 100.0 mg/kg/injection, schedule: Q01DX009 (ip), vehicle: Klucel (hydroxypropylcellulose) (HPC)
[8] = dose: 200.0 mg/kg/injection, schedule: Q01DX009 (ip), vehicle: Klucel (hydroxypropylcellulose) (HPC)
[9] = dose: 25.0 mg/kg/injection, schedule: Q04DX002 (ip), vehicle: Klucel (hydroxypropylcellulose) (HPC)
[10] = dose: 50.0 mg/kg/injection, schedule: Q04DX002 (ip), vehicle: Klucel (hydroxypropylcellulose) (HPC)
[11] = dose: 100.0 mg/kg/injection, schedule: Q04DX003 (ip), vehicle: Klucel (hydroxypropylcellulose) (HPC)
[12] = dose: 200.0 mg/kg/injection, schedule: Q04DX003 (ip), vehicle: Klucel (hydroxypropylcellulose) (HPC)
[13] = dose: 400.0 mg/kg/injection, schedule: Q01DX009 (ip), vehicle: Klucel (hydroxypropylcellulose) (HPC)
[14] = dose: 400.0 mg/kg/injection, schedule: Q04DX003 (ip), vehicle: Klucel (hydroxypropylcellulose) (HPC)
[15] = dose: 200.0 mg/kg/injection, schedule: Q01DX001 (ip), vehicle: saline
[16] = dose: 100.0 mg/kg/injection, schedule: Q01DX001 (ip), vehicle: saline
[17] = dose: 100.0 mg/kg/injection, schedule: Q01DX009 (ip), vehicle: saline
[18] = dose: 200.0 mg/kg/injection, schedule: Q01DX009 (ip), vehicle: saline

Measured: T/C

CCCCCCCCCCCCCCCCC(/C=N/N=C(N)N)=N\N=C(N)N
inactive: dose: 15.0 mg/kg/injection, schedule: Q01DX Z (ip), vehicle: methylcellulose (MC) 95 % of control | dose: 30.0 mg/kg/injection, schedule: Q01DX Z (ip), vehicle: methylcellulose (MC) 98 % of control | dose: 60.0 mg/kg/injection, schedule: Q01DX Z (ip), vehicle: methylcellulose (MC) 110 % of control | dose: 120.0 mg/kg/injection, schedule: Q01DX Z (ip), vehicle: methylcellulose (MC) 103 % of control | dose: 240.0 mg/kg/injection, schedule: Q01DX Z (ip), vehicle: methylcellulose (MC) 101 % of control | dose: 360.0 mg/kg/injection, schedule: Q01DX Z (ip), vehicle: methylcellulose (MC) 97 % of control | dose: 480.0 mg/kg/injection, schedule: Q01DX Z (ip), vehicle: methylcellulose (MC) 98 % of control | dose: 720.0 mg/kg/injection, schedule: Q01DX Z (oral), vehicle: methylcellulose (MC) 97 % of control | dose: 960.0 mg/kg/injection, schedule: Q01DX Z (oral), vehicle: methylcellulose (MC) 93 % of control

c1ccc2c(c1)CCc1ccccc1N=N2
inactive: [1] 96 % of control | [2] 92 % of control | [3] 94 % of control

CC12CCC(O)CC1=CCC1C2CCC2(C)c3nc(C#N)c(=N)n(O)c3CC12 (centres undefined)
inactive: [4] 94 % of control | dose: 200.0 mg/kg/injection, schedule: Q04DX002 (ip), vehicle: Klucel (hydroxypropylcellulose) (HPC) 105 % of control

NC(=O)CCNCCSC(=O)c1ccccc1
inactive: [5] 102 % of control | [6] 100 % of control | dose: 400.0 mg/kg/injection, schedule: Q04DX003 (ip), vehicle: saline with Tween-80 96 % of control

O=C(NNC(=O)c1ccc(Br)cc1)c1ccc(Cl)cc1
inactive: [1] 100 % of control | [7] 91 % of control | [2] 92 % of control | [8] 93 % of control | [3] 92 % of control

Cc1no[n+]([O-])c1-c1nc(SCC(=O)NN)n[nH]1
inactive: [9] 91 % of control | [10] 95 % of control | [4] 102 % of control

Nc1ccc(N(S(=O)(=O)c2ccccc2)S(=O)(=O)c2ccccc2)nc1
inactive: [7] 95 % of control | [11] 98 % of control | [8] 100 % of control | [12] 97 % of control | [13] 106 % of control | [14] 103 % of control

Cc1[nH]c(=O)[nH]c(=O)c1[N+](=O)[O-]
inactive: [7] 94 % of control | [11] 102 % of control | [8] 101 % of control | [12] 104 % of control | [13] 87 % of control | [14] 102 % of control

COC1OC(COC(c2ccccc2)(c2ccccc2)c2ccccc2)C(OC(=S)SCc2ccccc2)C(OC)C1OC (centres undefined)
inactive: [9] 108 % of control | [10] 104 % of control | [4] 104 % of control

CCCCCCCCCCCCCCCc1ccc([N+](=O)[O-])c(O)c1
inactive: dose: 100.0 mg/kg/injection, schedule: Q04DX003 (ip), vehicle: other 98 % of control | dose: 200.0 mg/kg/injection, schedule: Q04DX003 (ip), vehicle: other 101 % of control | dose: 400.0 mg/kg/injection, schedule: Q04DX003 (ip), vehicle: other 101 % of control

Cc1cc(C)c2c(C#N)cn(-c3cccc([N+](=O)[O-])c3)c2n1
inactive: dose: 50.0 mg/kg/injection, schedule: Q01DX001 (ip), vehicle: saline with Tween-80 98 % of control | dose: 100.0 mg/kg/injection, schedule: Q01DX001 (ip), vehicle: saline with Tween-80 103 % of control | dose: 200.0 mg/kg/injection, schedule: Q01DX001 (ip), vehicle: saline with Tween-80 95 % of control | [15] 87 % of control

O/N=C(\Cl)c1ccc(/C(Cl)=N\O)cc1
inactive: dose: 5.0 mg/kg/injection, schedule: Q01DX001 (ip), vehicle: saline 111 % of control | dose: 10.0 mg/kg/injection, schedule: Q01DX001 (ip), vehicle: saline 105 % of control | dose: 20.0 mg/kg/injection, schedule: Q01DX001 (ip), vehicle: saline 100 % of control

CCCCCCCCP(=O)(N1CC1CC)N1CC1CC (centres undefined)
inactive: dose: 50.0 mg/kg/injection, schedule: Q01DX001 (ip), vehicle: saline 101 % of control | [16] 103 % of control | [15] 101 % of control

O=S(=O)(O)C1(O)CCCCC1
inactive: dose: 50.0 mg/kg/injection, schedule: Q01DX009 (ip), vehicle: saline 99 % of control | [17] 93 % of control | dose: 100.0 mg/kg/injection, schedule: Q04DX003 (ip), vehicle: saline 102 % of control | [18] 103 % of control | dose: 200.0 mg/kg/injection, schedule: Q04DX003 (ip), vehicle: saline 100 % of control | dose: 400.0 mg/kg/injection, schedule: Q01DX009 (ip), vehicle: saline 113 % of control | dose: 400.0 mg/kg/injection, schedule: Q04DX003 (ip), vehicle: saline 96 % of control

Cc1c(C(=O)O)c(C)c([N+](=O)[O-])c(C)c1[N+](=O)[O-]
inactive: dose: 50.0 mg/kg/injection, schedule: Q04DX003 (ip), vehicle: saline with Tween-80 95 % of control | [11] 90 % of control | [5] 97 % of control | [12] 95 % of control | [6] 97 % of control | [14] 93 % of control

C(=Nc1cnc2sccc2c1)c1ccccc1
inactive: [11] 100 % of control | [12] 100 % of control | [14] 94 % of control

COc1ccccc1CN1CCCN(Cc2ccccc2OC)C1c1ccc(N(CCCl)CCCl)cc1C
inactive: [16] 88 % of control | [17] 98 % of control | [15] 88 % of control | [18] 95 % of control | dose: 400.0 mg/kg/injection, schedule: Q01DX001 (ip), vehicle: saline 87 % of control

S=C(Nc1ccccc1)Nc1ccc2ccccc2c1
inactive: [11] 100 % of control | [12] 94 % of control | [14] 110 % of control

COc1ccc([N+](=O)[O-])cc1NC(=O)c1cccc(Cl)c1
inactive: [7] 114 % of control | [8] 98 % of control | [13] 102 % of control

O=C(NCCCl)Nc1ccccn1
inactive: [11] 90 % of control | [12] 94 % of control | [14] 86 % of control

CN(C)CCC(c1ccccc1)(c1ccccc1)c1ccccc1
inactive: dose: 50.0 mg/kg/injection, schedule: Q01DX001 (ip), vehicle: carboxymethylcellulose (CMC) 92 % of control | dose: 100.0 mg/kg/injection, schedule: Q01DX001 (ip), vehicle: carboxymethylcellulose (CMC) 92 % of control | dose: 200.0 mg/kg/injection, schedule: Q01DX001 (ip), vehicle: carboxymethylcellulose (CMC) 94 % of control

CCOC(=O)N/N=C/c1c(F)cccc1Cl
inactive: dose: 75.0 mg/kg/injection, schedule: Q01DX001 (ip), vehicle: carboxymethylcellulose (CMC) 101 % of control | dose: 150.0 mg/kg/injection, schedule: Q01DX001 (ip), vehicle: carboxymethylcellulose (CMC) 106 % of control | dose: 300.0 mg/kg/injection, schedule: Q01DX001 (ip), vehicle: carboxymethylcellulose (CMC) 101 % of control
